Test results published in patent publication US9409978B2, “Modulation of midbody derivatives” (University of Massachusetts, priority 2011, dated 2016).
Entries after “also recorded” stand apart in the source; their conditions may differ.

Tests used:
HeLa cells = assay: Lysosome inhibition, MBd quantification in HeLa cells; format: cell-based; details: lysosomal inhibition 22 hours
Excerpt: (§1) Each dividing cell was considered one cell.

MCF-7 cancer cells = assay: Lysosome inhibition, MBd quantification in MCF-7 cells; format: cell-based; details: lysosomal inhibition 22 hours
Excerpt: as §1

hRPE-1 cells = assay: Lysosome inhibition, MBd quantification in hRPE-1 cells; format: cell-based; details: lysosomal inhibition 22 hours
Excerpt: as §1

hESCs (H1, H9) = assay: Lysosome inhibition, MBd quantification in hESCs; details: chloroquine treatment
Excerpt: Quantification was based on the markers that: 1) labeled both mitotic MBs and MBds (MKLP1, mgcRACGAP, or Cep55); 2) labeled MBs differently than MBds (α-tubulin or Aurora B); 3) defined cell boundaries (α-tubulin or ZO-1). Because Cep55, MKLP1, and mgcRACGAP also label centrioles and spindle midzones, cells were co-stained with centrosome antibody (e.g. 5051), and a size threshold for MB/MBds (1 μm) was introduced to exclude non-MBd structures. Structures with MB-specific or non-MB/MBd labeling were excluded from MBd counts. Cell counts: For hESCs, 5-11 colonies were imaged from triplicates in each experiment. For other cell types, random fields were imaged until n>500 cells. Each dividing cell was considered one cell.
Cells at 70% confluency were incubated with chloroquine (200 μM/PBS; Sigma), E64d+ pepstatin A (E64d/PepA) (10 μg ml^−1/DMSO each; Sigma) (Klionsky et al., 2008, Autophagy, 4:151-175; Komatsu et al., 2007, Cell, 131:1149-63) or solvents alone (controls) for 22 hours before fixation. Lysosome inhibition was confirmed and visualized after 12-hour DQ-Red BSA (10 μg ml^−1; Invitrogen) incubation.

CCN(CC)CCCC(C)Nc1ccnc2cc(Cl)ccc12 (stereo not shown) [chloroquine]
percent of MBd+ cells (MBd levels) (HeLa cells): modest increase; also recorded: increase the percent of MBd+ cells | presence of MBds in lysosomes (HeLa cells): presence of MBds in lysosomes | percent of MBd+ cells (MBd levels) (MCF-7 cancer cells): largely unaffected; also recorded: no detectable effect | percent of MBds in lysosomes (MCF-7 cancer cells): largely unaffected | percent of MBds found within lysosomes (hRPE-1 cells; LAMP2 lysosome marker): elevated; also recorded: presence of MBds in lysosomes | percent of MBd+ cells (MBd levels) (hRPE-1 cells; chloroquine 200 μM or E64d/PepA 10 μg/ml each): elevated; also recorded: increase the percent of MBd+ cells | effect of treatment on the cells (differentiation, cell death) (hESCs (H1, H9)): caused differentiation and cell death
